Key:
Format in all cases: in vivo
[1] = test system: common mallow (Malva sylvestris); assay: Test G pre/postemergence
From the text: (§1) Seeds or nutlets of plant species selected from bermudagrass (Cynodon dactylon), Surinam grass (Brachiaria decumbens), large crabgrass (Digitaria sanguinalis), green foxtail (Setaria viridis), goosegrass (Eleusine indica), johnsongrass (Sorghum halepense), kochia (Kochia scoparia), pitted morningglory (Ipomoea lacunosa), purple nutsedge (Cyperus rotundus), common ragweed (Ambrosia elatior), black mustard (Brassica nigra), guineagrass (Panicum maximum), dallisgrass (Paspalum dilatatum), barnyardgrass (Echinochloa crus-galli), southern sandbur (Cenchrus echinatus), common sowthistle (Sonchus oleraceous), prickly sida (Sida spinosa), Italian ryegrass (Lolium multiflorum), common purslane (Portulaca oleracea), broadleaf signalgrass (Brachiaria platyphylla), common groundsel (Senecio vulgaris), common chickweed (Stellaria media), tropical spiderwort (Commelina benghalensis), annual bluegrass (Poa annua), downy bromegrass (Bromus tectorum), itchgrass (Rottboellia cochinchinensis), quackgrass (Elytrigia repens), Canada horseweed (Conyza canadensis), field bindweed (Convolvulus arvensis), spanishneedles (Bidens bipinnata), common mallow (Malva sylvestris), and Russian thistle (Salsola kali) were planted and treated preemergence with test chemicals formulated in a non-phytotoxic solvent mixture which included a surfactant.
(§2) At the same time, plants selected from these weed species were treated with postemergence applications of some of the test chemicals formulated in the same manner. Plants ranged in height from 2 to 18 cm (1- to 4-leaf stage) for postemergence treatments. Treated plants and controls were maintained in a greenhouse for 12 to 21 days, after which time all species were compared to controls and visually evaluated.
(§3) Plant response ratings, summarized in Table G, are based on a scale of 0 to 100 where 0 is no effect and 100 is complete control. A dash (-) response means no test result.

[2] = test system: quackgrass (Elytrigia repens); assay: Test G pre/postemergence
From the text: as §1, §2, §3

[3] = test system: broadleaf signalgrass (Brachiaria platyphylla); assay: Test G pre/postemergence
From the text: as §1, §2, §3

[4] = test system: large crabgrass (Digitaria sanguinalis); assay: Test G pre/postemergence
From the text: as §1, §2, §3

[5] = test system: Russian thistle (Salsola kali); assay: Test D pre/postemergence; conditions: scale 0 to 100 (100 = complete control)
Method in brief: (§4)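 Pre: seeds sown, then treated. Post: plants at 1- to 4-leaf stage (2 to 18 cm) sprayed at the same time. Chemicals formulated in a non-phytotoxic solvent mixture including surfactant. After 15 to 25 days under controlled growth conditions, response rated visually from 0 (no effect) to 100 (complete control).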

[6] = test system: wheat (Triticum aestivum); assay: Test D pre/postemergence; conditions: scale 0 to 100 (100 = complete control)
Method in brief: as §4

[7] = test system: lambsquarters (Chenopodium album); assay: Test D pre/postemergence; conditions: scale 0 to 100 (100 = complete control)
Method in brief: as §4

[8] = test system: wild mustard (Sinapis arvensis); assay: Test D pre/postemergence; conditions: scale 0 to 100 (100 = complete control)
Method in brief: as §4

[9] = test system: catchweed bedstraw (galium; Galium aparine); assay: Test D pre/postemergence; conditions: scale 0 to 100 (100 = complete control)
Method in brief: as §4

[10] = test system: pigweed (Amaranthus retroflexus); assay: Test D pre/postemergence; conditions: scale 0 to 100 (100 = complete control)
Method in brief: as §4

[11] = test system: wild buckwheat (Polygonum convolvulus); assay: Test D pre/postemergence; conditions: scale 0 to 100 (100 = complete control)
Method in brief: as §4

[12] = test system: common chickweed (Stellaria media); assay: Test D pre/postemergence; conditions: Preemergence, scale 0 to 100 (100 = complete control)
Method in brief: as §4

kochia (Kochia scoparia) = assay: Test D pre/postemergence; conditions: scale 0 to 100 (100 = complete control)
Method in brief: as §4

[13] = Postemergence, 250 g ai/ha, scale 0 to 100
[14] = Postemergence, 16 g ai/ha, scale 0 to 100
[15] = Postemergence, 31 g ai/ha, scale 0 to 100
[16] = Postemergence, 125 g ai/ha, scale 0 to 100
[17] = Preemergence, 16 g ai/ha, scale 0-100
[18] = Preemergence, 31 g ai/ha, scale 0-100
[19] = Preemergence, 62 g ai/ha, scale 0-100
[20] = Preemergence, 125 g ai/ha, scale 0-100
[21] = Preemergence, 250 g ai/ha, scale 0-100
[22] = Postemergence, 62 g ai/ha, scale 0 to 100
[23] = Postemergence, 8 g ai/ha, scale 0 to 100
[24] = Preemergence, 8 g ai/ha, scale 0-100

Nc1nc(C2CC2)nc(C(=O)OCc2ccccc2)c1Br [Compound 22, phenylmethyl 6-amino-5-bromo-2-cyclopropyl-4-pyrimidinecarboxylate]
Plant response rating, Mallow [1, 13]: 95 | Plant response rating, Mallow [1, 14]: 40 | Plant response rating, Mallow [1, 15]: 60 | Plant response rating, Mallow [1, 16]: 85 | Plant response rating, Mallow [1, 17]: 50 | Plant response rating, Mallow [1, 18]: 50 | Plant response rating, Mallow [1, 19]: 75 | Plant response rating, Mallow [1, 20]: 80 | Plant response rating, Mallow [1, 21]: 80 | Plant response rating, Quackgrass [2, 13]: 85 | Plant response rating, Quackgrass [2, 14]: 15 | Plant response rating, Quackgrass [2, 15]: 40 | Plant response rating, Quackgrass [2, 22]: 65 | Plant response rating, Quackgrass [2, 16]: 75 | Plant response rating, Quackgrass [2, 17]: 0 | Plant response rating, Quackgrass [2, 18]: 0 | Plant response rating, Quackgrass [2, 19]: 20 | Plant response rating, Quackgrass [2, 20]: 20 | Plant response rating, Quackgrass [2, 21]: 30 | Plant response rating, Signalgrass [3, 13]: 85 | Plant response rating, Signalgrass [3, 14]: 5 | Plant response rating, Signalgrass [3, 15]: 15 | Plant response rating, Signalgrass [3, 22]: 25 | Plant response rating, Signalgrass [3, 16]: 50 | Plant response rating, Signalgrass [3, 17]: 0 | Plant response rating, Signalgrass [3, 18]: 0 | Plant response rating, Signalgrass [3, 19]: 0 | Plant response rating, Signalgrass [3, 20]: 10 | Plant response rating, Signalgrass [3, 21]: 80 | Plant response rating, Crabgrass, Large [4, 13]: 85 | Plant response rating, Crabgrass, Large [4, 14]: 15 | Plant response rating, Crabgrass, Large [4, 15]: 35 | Plant response rating, Crabgrass, Large [4, 22]: 50 | Plant response rating, Crabgrass, Large [4, 16]: 85 | Plant response rating, Crabgrass, Large [4, 17]: 0 | Plant response rating, Crabgrass, Large [4, 18]: 40 | Plant response rating, Crabgrass, Large [4, 19]: 40 | Plant response rating, Crabgrass, Large [4, 20]: 80 | Plant response rating, Crabgrass, Large [4, 21]: 80

COC(=O)c1nc(-c2ccc(Cl)cc2)nc(N)c1Cl [Compound 58, methyl 6-amino-5-chloro-2-(4-chlorophenyl)-4-pyrimidinecarboxylate]
Plant response rating, Russian Thistle ([5]; Postemergence, 62 g ai/ha): 70 | Plant response rating, Russian Thistle ([5]; Postemergence, 125 g ai/ha): 70 | Plant response rating, Russian Thistle ([5]; Postemergence, 250 g ai/ha): 70 | Plant response rating, Russian Thistle ([5]; Postemergence, 500 g ai/ha): 80 | Plant response rating, Russian Thistle ([5]; Preemergence, 62 g ai/ha): 40 | Plant response rating, Russian Thistle ([5]; Preemergence, 125 g ai/ha): 65 | Plant response rating, Russian Thistle ([5]; Preemergence, 250 g ai/ha): 70 | Plant response rating, Russian Thistle ([5]; Preemergence, 500 g ai/ha): 85 | Plant response rating, Wheat ([6]; Postemergence, 62 g ai/ha): 55 | Plant response rating, Wheat ([6]; Postemergence, 125 g ai/ha): 60 | Plant response rating, Wheat ([6]; Postemergence, 250 g ai/ha): 70 | Plant response rating, Wheat ([6]; Postemergence, 500 g ai/ha): 85 | Plant response rating, Wheat ([6]; Preemergence, 62 g ai/ha): 25 | Plant response rating, Wheat ([6]; Preemergence, 125 g ai/ha): 50 | Plant response rating, Wheat ([6]; Preemergence, 250 g ai/ha): 60 | Plant response rating, Wheat ([6]; Preemergence, 500 g ai/ha): 70 | Plant response rating, Lambsquarters ([7]; Postemergence, 62 g ai/ha): 80 | Plant response rating, Lambsquarters ([7]; Postemergence, 125 g ai/ha): 85 | Plant response rating, Lambsquarters ([7]; Postemergence, 250 g ai/ha): 100 | Plant response rating, Lambsquarters ([7]; Postemergence, 500 g ai/ha): 100 | Plant response rating, Lambsquarters ([7]; Preemergence, 62 g ai/ha): 60 | Plant response rating, Lambsquarters ([7]; Preemergence, 125 g ai/ha): 100 | Plant response rating, Lambsquarters ([7]; Preemergence, 250 g ai/ha): 100 | Plant response rating, Lambsquarters ([7]; Preemergence, 500 g ai/ha): 100 | Plant response rating, Mustard, Wild ([8]; Postemergence, 62 g ai/ha): 100 | Plant response rating, Mustard, Wild ([8]; Postemergence, 125 g ai/ha): 100 | Plant response rating, Mustard, Wild ([8]; Postemergence, 250 g ai/ha): 100 | Plant response rating, Mustard, Wild ([8]; Postemergence, 500 g ai/ha): 100 | Plant response rating, Mustard, Wild ([8]; Preemergence, 62 g ai/ha): 65 | Plant response rating, Mustard, Wild ([8]; Preemergence, 125 g ai/ha): 100 | Plant response rating, Mustard, Wild ([8]; Preemergence, 250 g ai/ha): 100 | Plant response rating, Mustard, Wild ([8]; Preemergence, 500 g ai/ha): 100 | Plant response rating, Galium ([9]; Postemergence, 62 g ai/ha): 100 | Plant response rating, Galium ([9]; Postemergence, 125 g ai/ha): 100 | Plant response rating, Galium ([9]; Postemergence, 250 g ai/ha): 100 | Plant response rating, Galium ([9]; Postemergence, 500 g ai/ha): 100 | Plant response rating, Galium ([9]; Preemergence, 62 g ai/ha): 100 | Plant response rating, Galium ([9]; Preemergence, 125 g ai/ha): 100 | Plant response rating, Galium ([9]; Preemergence, 250 g ai/ha): 100 | Plant response rating, Galium ([9]; Preemergence, 500 g ai/ha): 100 | Plant response rating, Pigweed ([10]; Postemergence, 62 g ai/ha): 80 | Plant response rating, Pigweed ([10]; Postemergence, 125 g ai/ha): 100 | Plant response rating, Pigweed ([10]; Postemergence, 250 g ai/ha): 100 | Plant response rating, Pigweed ([10]; Postemergence, 500 g ai/ha): 100 | Plant response rating, Pigweed ([10]; Preemergence, 62 g ai/ha): 70 | Plant response rating, Pigweed ([10]; Preemergence, 125 g ai/ha): 100 | Plant response rating, Pigweed ([10]; Preemergence, 250 g ai/ha): 100 | Plant response rating, Pigweed ([10]; Preemergence, 500 g ai/ha): 100 | Plant response rating, Buckwheat, Wild ([11]; Postemergence, 62 g ai/ha): 65 | Plant response rating, Buckwheat, Wild ([11]; Postemergence, 125 g ai/ha): 90 | Plant response rating, Buckwheat, Wild ([11]; Postemergence, 250 g ai/ha): 100 | Plant response rating, Buckwheat, Wild ([11]; Postemergence, 500 g ai/ha): 100 | Plant response rating, Buckwheat, Wild ([11]; Preemergence, 62 g ai/ha): 40 | Plant response rating, Buckwheat, Wild ([11]; Preemergence, 125 g ai/ha): 80 | Plant response rating, Buckwheat, Wild ([11]; Preemergence, 250 g ai/ha): 100 | Plant response rating, Buckwheat, Wild ([11]; Preemergence, 500 g ai/ha): 100 | Plant response rating, Chickweed ([12]; 62 g ai/ha): 60 | Plant response rating, Chickweed ([12]; 250 g ai/ha): 75 | Plant response rating, Chickweed ([12]; 500 g ai/ha): 100 | Plant response rating, Kochia (kochia (Kochia scoparia); Postemergence, 62 g ai/ha): 70 | Plant response rating, Kochia (kochia (Kochia scoparia); Postemergence, 125 g ai/ha): 100 | Plant response rating, Kochia (kochia (Kochia scoparia); Postemergence, 250 g ai/ha): 100 | Plant response rating, Kochia (kochia (Kochia scoparia); Postemergence, 500 g ai/ha): 100 | Plant response rating, Kochia (kochia (Kochia scoparia); Preemergence, 62 g ai/ha): 35 | Plant response rating, Kochia (kochia (Kochia scoparia); Preemergence, 125 g ai/ha): 95 | Plant response rating, Kochia (kochia (Kochia scoparia); Preemergence, 250 g ai/ha): 100 | Plant response rating, Kochia (kochia (Kochia scoparia); Preemergence, 500 g ai/ha): 100

CCOC(=O)c1nc(-c2ccc(Cl)cc2)nc(N)c1Cl [Compound 64, ethyl 6-amino-5-chloro-2-(4-chlorophenyl)-4-pyrimidinecarboxylate]
Plant response rating, Mallow [1, 23]: 65 | Plant response rating, Mallow [1, 14]: 80 | Plant response rating, Mallow [1, 15]: 90 | Plant response rating, Mallow [1, 22]: 90 | Plant response rating, Mallow [1, 24]: 0 | Plant response rating, Mallow [1, 18]: 0 | Plant response rating, Mallow [1, 19]: 0 | Plant response rating, Quackgrass [2, 23]: 0 | Plant response rating, Quackgrass [2, 14]: 20 | Plant response rating, Quackgrass [2, 15]: 20 | Plant response rating, Quackgrass [2, 22]: 35 | Plant response rating, Quackgrass [2, 24]: 0 | Plant response rating, Quackgrass [2, 17]: 0 | Plant response rating, Quackgrass [2, 18]: 0 | Plant response rating, Quackgrass [2, 19]: 0 | Plant response rating, Signalgrass [3, 23]: 0 | Plant response rating, Signalgrass [3, 14]: 0 | Plant response rating, Signalgrass [3, 15]: 0 | Plant response rating, Signalgrass [3, 22]: 30 | Plant response rating, Signalgrass [3, 24]: 0 | Plant response rating, Signalgrass [3, 17]: 0 | Plant response rating, Signalgrass [3, 18]: 0 | Plant response rating, Signalgrass [3, 19]: 0 | Plant response rating, Crabgrass, Large [4, 23]: 30 | Plant response rating, Crabgrass, Large [4, 14]: 50 | Plant response rating, Crabgrass, Large [4, 15]: 70 | Plant response rating, Crabgrass, Large [4, 22]: 80 | Plant response rating, Crabgrass, Large [4, 24]: 0 | Plant response rating, Crabgrass, Large [4, 17]: 0 | Plant response rating, Crabgrass, Large [4, 18]: 0 | Plant response rating, Crabgrass, Large [4, 19]: 35
